Reference: patent US20090311237A1, “Combination therapy using a soluble hyaluronidase and a bisphosphonate” (priority 2008, published 2009)

How the values were obtained:
[1] = rats; single IV administration of 1.6 mg/kg; cited from earlier work
[2] = Urinary excretion of unchanged ZA in pigs; assay type: in vivo, pig; settings: for Dose Amt 2 hr, Mean / Dose Amt 2 hr, Median: n 4; for mean percent of dose excreted unchanged in urine: pig, first 2 hours post dose
Experimental: Following ZA dose administration, serial blood samples were collected via vascular access ports (VAPs) for serum preparation and determination of ZA concentrations. […] Urine samples were also collected to compare excretion characteristics between IV and SC routes of administration.
Serum concentration of ZA was determined using a qualified LC-MS-MS assay after derivatization with diazomethane (Zhu, L S et al. (2006) Rapid Commun. Mass Spectrom. 20: 3421-3426; “Qualification Data of An LC-MS/MS Method for the Determination of Zoledronate in Porcine Serum”, MDS Pharma Services Study No. AA43671-01, Report Date 14 Sep. 2007). The assay range was from 2.0 to 400 ng/mL with a lower limit of quantitation (LLOQ) at 2.0 ng/mL. Urine concentration of ZA was determined by a similar well qualified LC-MS-MS method (“Qualification Data of An LC-MS/MS Method for the Determination of Zoledronate in Porcine Urine”, MDS Pharma Services Study No. AA43671-02, Report Date 14 Sep. 2007) with an assay LLOQ at 10 ng/mL.
Amount of ZA excreted unchanged in urine was determined for the collection interval from dosing to 2-hour post dose and compared between dose routes and co-administration with rHuPH20.
Urine sample volumes and concentration of ZA in the samples were used to calculate the amount of unchanged ZA excreted via the kidneys. Since continuous collection was halted at 2 hours post dose, the percent of administered ZA dose that were renally excreted was not determined. However, the percent of dose excreted within the 2-hour collection interval was estimated with the relationship that the systemically available SC ZA dose is equal to: […]

[3] = Study Group 1, IV infusion, ZA […], dosing to 2 h post dose, n 3
[4] = Study Group 2, SC, […] dose only
[5] = Study Group 2, SC, n 5, dosing to 2 h post dose
[6] = Study Group 3, SC with rHuPH20, […] dose only
[7] = Study Group 3, SC with rHuPH20, n 4, dosing to 2 h post dose

Compound: O=P(O)(O)C(O)(Cn1ccnc1)P(=O)(O)O [ZA, 1-hydroxy-2-(1H-imidazol-1-yl)ethylidene-1,1-bisphosphonic acid]
- injection site finding [1]: local irritation at the injection site
- Dose Excreted, Mean [2, 3]: 11.40%
- Dose Excreted, Median [2, 3]: 10.71%
- Dose Amt 2 hr, Mean [2, 4]: 2.87 mg
- Dose Amt 2 hr, Median [2, 4]: 2.88 mg
- Dose Excreted, Mean [2, 5]: 9.45%
- Dose Excreted, Median [2, 5]: 6.73%
- Dose Amt 2 hr, Mean [2, 6]: 3.00 mg
- Dose Amt 2 hr, Median [2, 6]: 3.03 mg
- Dose Excreted, Mean [2, 7]: 10.66%
- Dose Excreted, Median [2, 7]: 12.04%
- Dose Amt 2 hr (SC AUC(0-2 h) × CL × body weight) ([2]; pig 56, Study Group 3, SC with rHuPH20, ZA […]): 3.06 mg
- Dose Excreted (unchanged in urine) ([2]; pig 57, Study Group 1, IV infusion, ZA […], dosing to 2 h post dose): 13.23%
- Dose Amt 2 hr (SC AUC(0-2 h) × CL × body weight) ([2]; pig 58, Study Group 3, SC with rHuPH20, ZA […]): 3.03 mg
- Dose Excreted (unchanged in urine) ([2]; pig 58, Study Group 3, SC with rHuPH20, ZA […], dosing to 2 h post dose): 0.41%
- Dose Amt 2 hr (SC AUC(0-2 h) × CL × body weight) ([2]; pig 59, Study Group 2, SC, ZA […]): 1.44 mg
- Dose Excreted (unchanged in urine) ([2]; pig 59, Study Group 2, SC, ZA […], dosing to 2 h post dose): 5.10%
- Dose Amt 2 hr (SC AUC(0-2 h) × CL × body weight) ([2]; pig 60, Study Group 2, SC, ZA […]): 3.28 mg
- Dose Excreted (unchanged in urine) ([2]; pig 60, Study Group 2, SC, ZA […], dosing to 2 h post dose): 6.73%
- Dose Excreted (unchanged in urine) ([2]; pig 61, Study Group 1, IV infusion, ZA […], dosing to 2 h post dose): 10.71%
- Dose Amt 2 hr (SC AUC(0-2 h) × CL × body weight) ([2]; pig 62, Study Group 2, SC, ZA […]): 2.42 mg
- Dose Excreted (unchanged in urine) ([2]; pig 62, Study Group 2, SC, ZA […], dosing to 2 h post dose): 20.08%
- Dose Amt 2 hr (SC AUC(0-2 h) × CL × body weight) ([2]; pig 64, Study Group 3, SC with rHuPH20, ZA […]): 2.86 mg
- Dose Excreted (unchanged in urine) ([2]; pig 64, Study Group 3, SC with rHuPH20, ZA […], dosing to 2 h post dose): 12.29%
- Dose Amt 2 hr (SC AUC(0-2 h) × CL × body weight) ([2]; pig 66, Study Group 3, SC with rHuPH20, ZA […]): 1.22 mg
- Dose Excreted (unchanged in urine) ([2]; pig 66, Study Group 3, SC with rHuPH20, ZA […], dosing to 2 h post dose): 18.13%
- Dose Excreted (unchanged in urine) ([2]; pig 67, Study Group 1, IV infusion, ZA […], dosing to 2 h post dose): 10.25%
- Dose Amt 2 hr (SC AUC(0-2 h) × CL × body weight) ([2]; pig 68, Study Group 3, SC with rHuPH20, ZA […]): 3.03 mg
- Dose Excreted (unchanged in urine) ([2]; pig 68, Study Group 3, SC with rHuPH20, ZA […], dosing to 2 h post dose): 11.79%
- Dose Amt 2 hr (SC AUC(0-2 h) × CL × body weight) ([2]; pig 69, Study Group 2, SC, ZA […]): 2.83 mg
- Dose Excreted (unchanged in urine) ([2]; pig 69, Study Group 2, SC, ZA […], dosing to 2 h post dose): 10.19%
- Dose Amt 2 hr (SC AUC(0-2 h) × CL × body weight) ([2]; pig 70, Study Group 2, SC, ZA […]): 2.93 mg
- Dose Excreted (unchanged in urine) ([2]; pig 70, Study Group 2, SC, ZA […], dosing to 2 h post dose): 5.17%
- mean percent of dose excreted unchanged in urine ([2]; Study Group 1 (IV […])): 11.40%
- mean percent of dose excreted unchanged in urine ([2]; Study Group 2 (SC ZA without rHuPH20)): 9.45%
